Results on 13 compounds are retold here after patent publication US7737153B2, “Heteroaryloxy-substituted phenylaminopyrimidines as rho-kinase inhibitors” (Bayer Schering Pharma Aktiengesellschaft, priority 2002, dated 2010).

Assay [1] deals with isolated rings of the saphenous artery of rabbits. Description: Vessel-relaxing action in vitro, phenylephrin-induced contractions of isolated saphenous artery rings. Set-up: species or system rabbit. The settings on record: Oryctolagus cuniculus; contraction induced by 3×10^−8 g of phenylephrin/ml; concentration reducing control contraction by 50%. Here is the method:
(§1) The inhibition of the enzyme is investigated in an in vitro assay with recombinant Rho kinase II. The vessel-relaxing action is determined using phenylephrin-induced contractions of isolated rings of the saphenous artery of rabbits.
Vessel-Relaxing Action In Vitro
Individual 3-mm-wide rings of the isolated saphenous artery of rabbits are introduced into 5 ml organ baths with Krebs-Henseleit solution (37° C., gassed with carbogen). The vessel tone is monitored isometrically and registered. Contractions are induced by addition of 3×10^−8 g of phenylephrin/ml, which is washed out again after 4 min. After a number of control cycles, the rings are pre-incubated with the substance to be examined, with the dosage being increased for each further cycle, and the subsequent contraction is compared to the intensity of the last control contraction.

Assay [2] concerns the target T1, recombinant Rho kinase II (ROKα) (Homo sapiens, UniProt O75116).
T1 construct: purchased Upstate Biotechnology
As to the kind of experiment: Inhibition of recombinant Rho kinase II (ROKα), 33P uptake into S6 substrate peptide. The assay is classed as biochemical. The settings on record: 33P-ATP, S6 phosphate-acceptor peptide, 20 min at 37° C., vs solvent control. How it is done: as §1
Inhibition of Recombinant Rho Kinase II (ROKα)
The activity of Rho kinase is determined by the uptake of ^33P phosphate into a substrate peptide. To this end, commercially available Rho kinase II (Upstate Biotechnology) is pre-incubated at 37° C. in the presence of the S6 phosphate-acceptor peptide with the test substances or a solvent control for 10 min. The kinase reaction is then started by addition of ^33P-labelled ATP. After 20 min at 37° C., the reaction is stopped by addition of H3PO4. Aliquots are pipetted onto filters and the filters are washed and then covered with scintillator. The radioactivity of the ^33P-labelled peptides bound to the filter is measured in a Micro-Beta counter.

T1 sequence (O75116 whole entry): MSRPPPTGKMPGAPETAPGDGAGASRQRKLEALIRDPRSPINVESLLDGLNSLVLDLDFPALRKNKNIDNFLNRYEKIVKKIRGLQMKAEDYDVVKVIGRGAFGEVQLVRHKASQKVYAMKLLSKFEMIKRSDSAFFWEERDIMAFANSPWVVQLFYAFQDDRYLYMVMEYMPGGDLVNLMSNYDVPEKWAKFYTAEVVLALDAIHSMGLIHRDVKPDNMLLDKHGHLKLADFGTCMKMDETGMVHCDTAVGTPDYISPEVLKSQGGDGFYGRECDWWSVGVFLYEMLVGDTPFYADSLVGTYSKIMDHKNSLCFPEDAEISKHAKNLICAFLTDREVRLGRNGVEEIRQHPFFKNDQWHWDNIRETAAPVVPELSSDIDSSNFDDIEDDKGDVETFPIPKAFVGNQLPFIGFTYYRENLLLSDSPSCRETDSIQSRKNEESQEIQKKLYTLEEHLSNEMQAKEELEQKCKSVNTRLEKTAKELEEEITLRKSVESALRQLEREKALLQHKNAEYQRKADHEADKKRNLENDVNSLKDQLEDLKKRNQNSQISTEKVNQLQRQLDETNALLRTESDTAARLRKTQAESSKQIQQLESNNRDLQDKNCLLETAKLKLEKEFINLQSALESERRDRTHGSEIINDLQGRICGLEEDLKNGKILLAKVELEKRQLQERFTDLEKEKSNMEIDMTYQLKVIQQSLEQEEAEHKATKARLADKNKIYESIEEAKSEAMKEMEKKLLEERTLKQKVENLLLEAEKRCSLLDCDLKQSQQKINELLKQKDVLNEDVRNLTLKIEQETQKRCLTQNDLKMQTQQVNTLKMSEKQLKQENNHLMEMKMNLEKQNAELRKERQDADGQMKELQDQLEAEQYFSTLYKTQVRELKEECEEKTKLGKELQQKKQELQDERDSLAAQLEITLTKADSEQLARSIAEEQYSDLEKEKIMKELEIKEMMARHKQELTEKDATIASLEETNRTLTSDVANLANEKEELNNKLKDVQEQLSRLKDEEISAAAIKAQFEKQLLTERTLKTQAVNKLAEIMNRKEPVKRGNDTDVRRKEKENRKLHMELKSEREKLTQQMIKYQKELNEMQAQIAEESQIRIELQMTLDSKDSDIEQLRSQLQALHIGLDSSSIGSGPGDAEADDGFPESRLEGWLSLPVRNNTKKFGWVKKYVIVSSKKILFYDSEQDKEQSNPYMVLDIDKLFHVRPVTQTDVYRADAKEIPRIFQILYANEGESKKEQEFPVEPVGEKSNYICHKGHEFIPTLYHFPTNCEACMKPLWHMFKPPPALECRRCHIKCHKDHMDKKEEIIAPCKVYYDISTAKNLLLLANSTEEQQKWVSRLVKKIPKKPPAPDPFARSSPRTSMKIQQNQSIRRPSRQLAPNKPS

As a reminder, the IC50 is the concentration at which inhibition is half-maximal. As for `Cc1n[nH]c2cccc(Oc3ccc(Nc4cc(-c5ccncc5)nc(N)n4)cc3F)c12` [Example 1, N-[2-Amino-6-(4-pyridinyl)-4-pyrimidinyl]-N-{3-fluoro-4-[(3-methyl-1H-indazol-4-yl)oxy]phenyl}amine], the IC50 in assay [1] came to 6800 nM.
Consider `Nc1nc(Nc2ccc(Oc3ccc4[nH]ncc4c3)c(F)c2)cc(-c2ccncc2)n1` [Example 5, N-[2-Amino-6-(4-pyridinyl)-4-pyrimidinyl]-N-[3-fluoro-4-(1H-indazol-5-yloxy)-phenyl]amine], for which the results for the IC50 in assay [2] and in assay [1] were 20 nM and 1020 nM, respectively.
Consider `Nc1nc(Nc2ccc(Oc3ccc4[nH]ncc4c3)c(Cl)c2)cc(-c2ccncc2)n1` [Example 6], for which the IC50 in assay [2] worked out at 30 nM; in assay [1] it was 4330 nM.
As to `Nc1nc(Nc2ccc(Oc3ccc4cn[nH]c4c3)c(F)c2)cc(-c2ccncc2)n1` [Example 7], in assay [1], half-maximal inhibition (IC50) required 6700 nM.
Take `Nc1nc(Nc2ccc(Oc3ccc4[nH]ncc4c3)c(F)c2)cc(N2C[C@H]3CCCN[C@H]3C2)n1` [Example 11, 6-[(4aR,7aR)-Octahydro-6H-pyrrolo[3,4-b]pyridin-6-yl]-N-4-[3-fluoro-4-(1H-indazol-5-yloxy)phenyl]-2,4-pyrimidinediamine]: the 50% inhibitory concentration (IC50) turned out to be 6 nM in assay [2] and 350 nM in assay [1].
Consider `Nc1nc(Nc2ccc(Oc3ccc4[nH]ncc4c3)c(F)c2)cc(N2C[C@@H]3CCCN[C@@H]3C2)n1` [Example 12], for which the IC50 came out at 55 nM in assay [2] and 2700 nM in assay [1].
Take `Nc1nc(Nc2ccc(Oc3ccc4[nH]ncc4c3)c(Cl)c2)cc(N2C[C@H]3CCCN[C@H]3C2)n1` [Example 13]: the IC50 amounted to 9 nM in assay [2] and 2000 nM in assay [1].
As for `Nc1nc(Nc2ccc(Oc3ccc4[nH]ncc4c3)c(Cl)c2)cc(N[C@@H]2CCCC[C@H]2N)n1` [Example 15], the IC50 in assay [2] is 20 nM.
On to `Nc1nc(Nc2ccc(Oc3ccc4[nH]ncc4c3)c(F)c2)cc(N[C@@H]2CCCC[C@H]2N)n1` [Example 16], for which the IC50 was 50 nM in assay [2] and 6900 nM in assay [1].
On to `Nc1nc(Nc2ccc(Oc3ccc4[nH]ncc4c3)c(F)c2)cc(-c2ccccc2)n1` [Example 18, N-(2-Amino-6-phenyl-4-pyrimidinyl)-N-[3-fluoro-4-(1H-indazol-5-yloxy)phenyl]amine], for which, in assay [2], the half-maximal inhibitory concentration (IC50) is 43 nM.
For the compound `CN(CCO)CC1CCN(c2cc(Nc3ccc(Oc4ccnc5[nH]ccc45)c(F)c3)nc(N)n2)C1` (centres unmarked) [Example 68], the IC50 in assay [2] turned out to be 1 nM; in assay [1], 260 nM.
Regarding `CC(C)(C)NCc1cc(Nc2ccc(Oc3ccnc4[nH]ccc34)c(F)c2)nc(N)n1` [Example 116], 150 nM corresponded to half-maximal inhibition in assay [1] (IC50).
On the same count and under the same terms, for `Nc1nc(CN2CCCCC2)cc(Nc2ccc(Oc3ccnc4[nH]ccc34)c(F)c2)n1` [Example 117, N^4-[3-Fluoro-4-(1H-pyrrolo[2,3-b]pyridin-4-yloxy)phenyl]-6-(piperidin-1-ylmethyl)-pyrimidine-2,4-diamine] the value was 80 nM.
